In ChEMBL document CHEMBL1125918, “Synthesis of 3-carbamoylecgonine methyl ester analogues as inhibitors of cocaine binding and dopamine uptake” (J Med Chem, 1991) one finds IC50 data, which are given here for six compounds.

For the experiment, the species on record is Rattus norvegicus. Kind of experiment: Compound was evaluated in vitro, for the ability to inhibit [3H]- dopamine uptake into synaptosomes (prepared from rat striatal tissues). It counts as functional. The conditions noted are these: Brain.

As for `COC(=O)C1C2CC[C@H](C[C@@H]1OC(=O)Nc1cccc([N+](=O)[O-])c1)N2C` (stereo partly specified), it took 0.178 µM to reach half-maximal inhibition (IC50).
Take `COC(=O)C1C2CC[C@H](C[C@@H]1OC(=O)Nc1ccc(N)cc1)N2C` (stereo partly specified): the IC50 is greater than 100 µM.
In the case of `COC(=O)C1C2CC[C@H](C[C@@H]1OC(=O)Nc1cccc(N)c1)N2C` (stereo partly specified) it was 23.1 µM; in that of `COC(=O)C1C2CC[C@H](C[C@@H]1OC(=O)Nc1ccccc1)N2C` (stereo partly specified), 52.6 µM.
`COC(=O)[C@H]1[C@@H](OC(=O)c2ccccc2)C[C@@H]2CC[C@H]1N2C` [COCAINE]: the IC50 stood at 0.213 µM.
`COC(=O)C1C2CC[C@H](C[C@@H]1OC(=O)Nc1ccc([N+](=O)[O-])cc1)N2C` (stereo partly specified) yielded an IC50 of 5.7 µM. This IC50 is about 27-fold higher than that of the compound before.
